Experimental data as given in ChEMBL document CHEMBL3045968, “Antitumor activities of some new 1,3,2-oxaza- and 1,3,2-diazaphosphorinanes against K562, MDA-MB-231, and HepG2 cells” (Med Chem Res, 2012).

Tests used:
[1] = octanol/water
Description: Lipophilicity, log P of the compound

MDA-MB-231 = experiment: cells; conditions: Homo sapiens, MDA-MB-231, 48 h
Description: Cytotoxicity against Homo sapiens (human) MDA-MB-231 cells after 48 hr by MTT assay

HepG2 = experiment: cells; conditions: Homo sapiens, HepG2, 48 h
Description: Cytotoxicity against Homo sapiens (human) HepG2 cells after 48 hr by MTT assay

K562 = experiment: cells; conditions: Homo sapiens, K562, 48 h
Description: Cytotoxicity against Homo sapiens (human) K562 cells after 48 hr by MTT assay

physchem = conditions: octanol/water
Description: Lipophilicity, log P of the compound

| SMILES | logP [1] | IC50 (MDA-MB-231) [nM] | IC50 (HepG2) [nM] | IC50 (K562) [nM] | logP (physchem) |
| --- | --- | --- | --- | --- | --- |
| Cc1ccc(OP2(=O)NCC(C)(C)CN2)cc1 | 0.12 | 230 | 2200 | 1440 |  |
| O=P1(Nc2ccccc2)NCCCO1 (stereo not drawn) |  | 830 | 600 | 550 | 0.29 |
| NS(=O)(=O)c1ccc(NP2(=O)NCCCO2)cc1 (stereo not drawn) |  | 170 | 140 | 150 | 1.88 |
| COc1ccc(NP2(=O)NCCCO2)cc1 (stereo not drawn) |  | 230 | 60 | 200 | -0.71 |
| O=[N+]([O-])c1ccc(NP2(=O)NCCCO2)cc1 (stereo not drawn) |  | 90 | 150 | 890 | -0.53 |
| Cc1ccc(OP2(=O)NCCCO2)cc1 (stereo not drawn) |  | 870 | 590 | 710 | 0.76 |
| NS(=O)(=O)c1ccc(NP2(=O)NCCCN2)cc1 |  | 110 | 130 | 190 | 1.56 |
| CC1(C)CNP(=O)(Nc2ccccc2)NC1 |  | 2040 | 3170 | 3110 | -0.03 |
| O=P1(N(CCCl)CCCl)NCCCO1 (stereo not drawn) [CYCLOPHOSPHAMIDE ANHYDROUS] |  | 90 | 240 | 150 |  |
| Nc1ccc(S(N)(=O)=O)cc1 [SULFANILAMIDE] |  | 90 | 80 | 200 |  |
